Results taken from article PMC11695783 (Frontiers in Pharmacology, 2024).
In brackets after ≈: the same amount, converted by molar mass. Where two headings read alike, the source gives them in different places.

What was measured:
[1] = system: Mycoplasma pneumoniae strain M129 (ATCC 29342); experiment: Time-kill curves; assay type: cell-based; design: M. pneumoniae count in time-kill curve: unit not given here; details: for concentration at which bactericidal effect was achieved: static time-kill; for concentration at which bactericidal effect was achieved / reduction of bacterial counts: 72 h
How it was run: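 Strain grown at 37 °C, 5% CO2 in modified SP-4 broth (pH 7.4, 20% FBS). Cultures incubated 72 h, sampled every 12 h, 10-fold serially diluted and plated on SP-4 agar; colonies counted after 7 d. Three repeats.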

[2] = system: Mycoplasma pneumoniae strain M129 (ATCC 29342); experiment: Susceptibility assay (broth microdilution MIC, MBC); assay type: cell-based; details: for MIC: M. pneumoniae strain M129, ≈96 h; for MBC: M. pneumoniae strain M129
Protocol: Mycoplasma pneumoniae strain M129 (ATCC 29342) was obtained from American Type Culture Collection (Manassas, VA, United States) and cultured at 37°C in the presence of 5% CO2 in the modified SP-4 liquid medium (pH 7.4) containing 2.1% (w/v) CM1166 mycoplasma broth base medium (Oxoid, Hants, United Kingdom), 20% (v/v) fetal bovine serum (FBS, Bioexplorer, CO, United States), 0.4% yeast extract (Oxoid), 0.55% (w/v) CMRL 1066 w/L-glutamine culture media powder (MyBioSource, San Diego, CA, United States), 1% D-glucose (Macklin) and 0.004% phenol red (Macklin). […] The solid medium is based on the above formula with the addition of 1% agar, and the characteristic fried egg-like colonies were used for experiments following incubation for 7 d on plates.
The broth microdilution MIC procedure was performed according to standardized methods for microdilution susceptibility testing of mycoplasma species ([Waites et al., 2012]). […] The concentration of organisms should be determined to approximately 10^6 CFU/mL prior to inoculation into 96-well plates. Due to the action of phenol red, the acidic metabolites of microbial growth can turn the medium yellow. […] The MBC assays were performed based on MICs following endpoint reading and the liquid in the high-concentration wells was removed for bacterial counting.

C=C[C@]1(C)C[C@@H](OC(=O)CSCCN(CC)CC)[C@]2(C)[C@H](C)CC[C@]3(CCC(=O)[C@H]32)[C@@H](C)[C@@H]1O [tiamulin, Tiamulin, reference compound]
M. pneumoniae count in time-kill curve ([1]; 1×MIC, time 0): 6.339 | M. pneumoniae count in time-kill curve ([1]; 1×MIC, time 12): 5.698 | M. pneumoniae count in time-kill curve ([1]; 1×MIC, time 24): 6.253 | M. pneumoniae count in time-kill curve ([1]; 1×MIC, time 36): 5.423 | M. pneumoniae count in time-kill curve ([1]; 1×MIC, time 48): 4.896 | M. pneumoniae count in time-kill curve ([1]; 1×MIC, time 60): 5.29 | M. pneumoniae count in time-kill curve ([1]; 1×MIC, time 72): 4.787 | M. pneumoniae count in time-kill curve ([1]; 2×MIC, time 0): 6.339 | M. pneumoniae count in time-kill curve ([1]; 2×MIC, time 12): 6.4123 | M. pneumoniae count in time-kill curve ([1]; 2×MIC, time 24): 6.433 | M. pneumoniae count in time-kill curve ([1]; 2×MIC, time 36): 4.77 | M. pneumoniae count in time-kill curve ([1]; 2×MIC, time 48): 4.196 | M. pneumoniae count in time-kill curve ([1]; 2×MIC, time 60): 3.827 | M. pneumoniae count in time-kill curve ([1]; 2×MIC, time 72): 3.91 | M. pneumoniae count in time-kill curve ([1]; 4×MIC, time 0): 6.339 | M. pneumoniae count in time-kill curve ([1]; 4×MIC, time 12): 6.61 | M. pneumoniae count in time-kill curve ([1]; 4×MIC, time 24): 6.296 | M. pneumoniae count in time-kill curve ([1]; 4×MIC, time 36): 3.841 | M. pneumoniae count in time-kill curve ([1]; 4×MIC, time 48): 3.684 | M. pneumoniae count in time-kill curve ([1]; 4×MIC, time 60): 3.889 | M. pneumoniae count in time-kill curve ([1]; 4×MIC, time 72): 3.638 | M. pneumoniae count in time-kill curve ([1]; 8×MIC, time 0): 6.339 | M. pneumoniae count in time-kill curve ([1]; 8×MIC, time 12): 6.119 | M. pneumoniae count in time-kill curve ([1]; 8×MIC, time 24): 6.148 | M. pneumoniae count in time-kill curve ([1]; 8×MIC, time 36): 3.952 | M. pneumoniae count in time-kill curve ([1]; 8×MIC, time 48): 3.772 | M. pneumoniae count in time-kill curve ([1]; 8×MIC, time 60): 3.839 | M. pneumoniae count in time-kill curve ([1]; 8×MIC, time 72): 3.776 | M. pneumoniae count in time-kill curve ([1]; 16×MIC, time 0): 6.339 | M. pneumoniae count in time-kill curve ([1]; 16×MIC, time 12): 6.238 | M. pneumoniae count in time-kill curve ([1]; 16×MIC, time 24): 5.56 | M. pneumoniae count in time-kill curve ([1]; 16×MIC, time 36): 4 | M. pneumoniae count in time-kill curve ([1]; 16×MIC, time 48): 3.739 | M. pneumoniae count in time-kill curve ([1]; 16×MIC, time 60): 3.621 | M. pneumoniae count in time-kill curve ([1]; 16×MIC, time 72): 3.801 | M. pneumoniae count in time-kill curve ([1]; 32×MIC, time 0): 6.339 | M. pneumoniae count in time-kill curve ([1]; 32×MIC, time 12): 6.569 | M. pneumoniae count in time-kill curve ([1]; 32×MIC, time 24): 5.262 | M. pneumoniae count in time-kill curve ([1]; 32×MIC, time 36): 3.833 | M. pneumoniae count in time-kill curve ([1]; 32×MIC, time 48): 3.266 | M. pneumoniae count in time-kill curve ([1]; 32×MIC, time 60): 3.249 | M. pneumoniae count in time-kill curve ([1]; 32×MIC, time 72): 3.425 | M. pneumoniae count in time-kill curve ([1]; 64×MIC, time 0): 6.339 | M. pneumoniae count in time-kill curve ([1]; 64×MIC, time 12): 6.625 | M. pneumoniae count in time-kill curve ([1]; 64×MIC, time 24): 4.23 | M. pneumoniae count in time-kill curve ([1]; 64×MIC, time 36): 3.61 | M. pneumoniae count in time-kill curve ([1]; 64×MIC, time 48): 3.065 | M. pneumoniae count in time-kill curve ([1]; 64×MIC, time 60): 3.16 | M. pneumoniae count in time-kill curve ([1]; 64×MIC, time 72): 3.29 | concentration at which bactericidal effect was achieved [1]: 64 × MIC | MIC ([2]; read-out: MIC): 7.81 ng/mL (≈ 0.0158 µM) | MBC ([2]; read-out: MBC): 62.5 ng/mL (≈ 0.127 µM)

C=CC1(C)CC(OC(=O)CSc2ccc(NC(=O)Cc3ccc([N+](=O)[O-])cc3)cc2)C2(C)C(C)CCC3(CCC(=O)C32)C(C)C1O (centres unmarked) [compound 16C, 22–((4-((4-nitrophenyl)acetamido)phenyl)thio)deoxypleuromutilin]
M. pneumoniae count in time-kill curve ([1]; 1×MIC, time 0): 7.809 | M. pneumoniae count in time-kill curve ([1]; 1×MIC, time 12): 7.011 | M. pneumoniae count in time-kill curve ([1]; 1×MIC, time 24): 6.5256 | M. pneumoniae count in time-kill curve ([1]; 1×MIC, time 36): 6.341 | M. pneumoniae count in time-kill curve ([1]; 1×MIC, time 48): 6.63 | M. pneumoniae count in time-kill curve ([1]; 1×MIC, time 60): 6.334 | M. pneumoniae count in time-kill curve ([1]; 1×MIC, time 72): 5.5397 | reduction of bacterial counts ([1]; 1–4 × MIC): 2.27–2.60 log10 CFU/mL | M. pneumoniae count in time-kill curve ([1]; 2×MIC, time 0): 7.809 | M. pneumoniae count in time-kill curve ([1]; 2×MIC, time 12): 6.901 | M. pneumoniae count in time-kill curve ([1]; 2×MIC, time 24): 6.35 | M. pneumoniae count in time-kill curve ([1]; 2×MIC, time 36): 6.074 | M. pneumoniae count in time-kill curve ([1]; 2×MIC, time 48): 6.197 | M. pneumoniae count in time-kill curve ([1]; 2×MIC, time 60): 5.9 | M. pneumoniae count in time-kill curve ([1]; 2×MIC, time 72): 5.211 | M. pneumoniae count in time-kill curve ([1]; 4×MIC, time 0): 7.247 | M. pneumoniae count in time-kill curve ([1]; 4×MIC, time 12): 6.539 | M. pneumoniae count in time-kill curve ([1]; 4×MIC, time 24): 6.026 | M. pneumoniae count in time-kill curve ([1]; 4×MIC, time 36): 5.763 | M. pneumoniae count in time-kill curve ([1]; 4×MIC, time 48): 5.628 | M. pneumoniae count in time-kill curve ([1]; 4×MIC, time 60): 5.61 | M. pneumoniae count in time-kill curve ([1]; 4×MIC, time 72): 4.889 | M. pneumoniae count in time-kill curve ([1]; 8×MIC, time 0): 7.429 | M. pneumoniae count in time-kill curve ([1]; 8×MIC, time 12): 7.7 | M. pneumoniae count in time-kill curve ([1]; 8×MIC, time 24): 5.719 | M. pneumoniae count in time-kill curve ([1]; 8×MIC, time 36): 4.474 | M. pneumoniae count in time-kill curve ([1]; 8×MIC, time 48): 3.799 | M. pneumoniae count in time-kill curve ([1]; 8×MIC, time 60): 3 | M. pneumoniae count in time-kill curve ([1]; 8×MIC, time 72): 3.001 | M. pneumoniae count in time-kill curve ([1]; 16×MIC, time 0): 7.247 | M. pneumoniae count in time-kill curve ([1]; 16×MIC, time 12): 7.508 | M. pneumoniae count in time-kill curve ([1]; 16×MIC, time 24): 4.094 | M. pneumoniae count in time-kill curve ([1]; 16×MIC, time 36): 3.774 | M. pneumoniae count in time-kill curve ([1]; 16×MIC, time 48): 3.36 | M. pneumoniae count in time-kill curve ([1]; 16×MIC, time 60): 2.9656 | M. pneumoniae count in time-kill curve ([1]; 16×MIC, time 72): 2.848 | M. pneumoniae count in time-kill curve ([1]; 32×MIC, time 0): 7.065 | M. pneumoniae count in time-kill curve ([1]; 32×MIC, time 12): 6.342 | M. pneumoniae count in time-kill curve ([1]; 32×MIC, time 24): 6.583 | M. pneumoniae count in time-kill curve ([1]; 32×MIC, time 36): 4.407 | M. pneumoniae count in time-kill curve ([1]; 32×MIC, time 48): 3.894 | M. pneumoniae count in time-kill curve ([1]; 32×MIC, time 60): 3.568 | M. pneumoniae count in time-kill curve ([1]; 32×MIC, time 72): 2.774 | number of organisms (decreased to the LOD) ([1]; 64 × MIC, 72 h exposure): 2 log10 CFU/mL | M. pneumoniae count in time-kill curve ([1]; 64×MIC, time 0): 7.065 | M. pneumoniae count in time-kill curve ([1]; 64×MIC, time 12): 5.938 | M. pneumoniae count in time-kill curve ([1]; 64×MIC, time 24): 5.724 | M. pneumoniae count in time-kill curve ([1]; 64×MIC, time 36): 3.5819 | M. pneumoniae count in time-kill curve ([1]; 64×MIC, time 48): 3.199 | M. pneumoniae count in time-kill curve ([1]; 64×MIC, time 60): 2.961 | M. pneumoniae count in time-kill curve ([1]; 64×MIC, time 72): 2 | concentration at which bactericidal effect was achieved [1]: ≥ 8 × MIC | reduction of bacterial counts ([1]; ≥ 8×MIC): > 3 log10 CFU/mL | MBC [2]: 7.812 ng/mL (≈ 0.012 µM) | MIC [2]: 1.953 ng/mL (≈ 0.00301 µM)
